Measurements reported in patent publication US6962930B1, “Compounds, compositions and method suitable for amelioration of withdrawal syndromes and withdrawal-induced brain damage” (Lohocla Research Corporation, priority 1997, dated 2005).

Key:
[1] = test system: audiogenic seizures in DBA/2J mice; test: Audiogenic seizures; assay type: in vivo; settings: 100 or 500 mg/kg, about 90 minutes before stimulus
Procedure: Male DBA/2J mice (20–22 days old; 8–12 g) were used to evaluate the effects of DCUK-OMe in an animal model of partial seizures. A description of this test for audiogenic seizures can be found in Engstrom, F. L., et al., “SEIZURE SUSCEPTIBILITY IN DBA AND C57 MICE: THE EFFECTS OF VARIOUS CONVULSANTS,” Epilepsia., 29 389–395 (1988), the relevant disclosures of which are incorporated herein by reference. Mice were injected with either vehicle (5% Tween-80, 20% Intralipid) or 100 mg/kg or 500 mg/kg DCUK-OMe suspended in the vehicle about 90 minutes before being placed into a testing chamber having a size of about 6 inches (about 15.2 cm) diameter×about 20 inches (about 50.8 cm) height enclosed in a sound-attenuated box. After a 15–20 second habituation period, a high-intensity auditory stimulus (ringing doorbell, 12–16 kHz, 109 db) was activated for 30 seconds or until tonic hindlimb extension occurred. The seizure response in these mice was characterized by a progression of a wild running behavior, followed by loss of righting and clonus of the forelimbs, followed by tonic hindlimb extension, and finally respiratory arrest. The number of mice showing each response was recorded. […] Data were analyzed by the Fisher Exact Test. In FIG. 8, * denotes P<0.05 compared to vehicle injected mice.

Swiss-Webster mice = test: Ethanol-induced loss of righting reflex; assay type: in vivo; settings: i.p. 30 minutes before ethanol; DCUK-OMe 100 mg/kg, DZP 1 mg/kg
Procedure: Swiss-Webster mice were pretreated (i.p.) with 100 mg/kg DCUK-OMe or 1 mg/kg diazepam (DZP) (in 5% Tween-80, 20% Intralipid) 30 minutes before receiving an i.p. administration of ethanol (either 2.3 or 3.2 g/kg, 20% v/v in saline.). The duration of the ethanol-induced loss of righting reflex (defined as the inability of the mouse to right itself when placed on its back in a trough) was measured. […] Since withdrawal signs are many times evident in individuals whose blood ethanol levels are dropping but are far from zero, the DCUK compounds would have an advantage over DZP in that the CNS depressant effects of ethanol would not be accentuated by DCUK compounds if the DCUK compounds are used in an alcohol-intoxicated individual.

[2] = target: benzodiazepine binding site on the GABAA receptor; test: [3H]flunitrazepam binding, rat cortical membranes; settings: 5–200 μM DCUKA tested
Procedure: SITES IN CEREBRUM OF F-344 RATS: EFFECTS OF EXERCISE,” Neurobiol. […] Non-specific binding was defined by 10 μM diazepam.

[3] = target: T1, NR1a/NR2B recombinant receptors (Homo sapiens, UniProt Q05586+Q13224); test: NMDA-induced currents in oocytes expressing NR1a/NR2B; assay type: cell-based; settings: 100 μM NMDA, 0.3 μM glycine, oocytes; read-out: IC50, inhibition of NMDA-induced currents
T1 construct: expressed in transfected cells; host or cells: Xenopus laevis oocytes, nuclear cDNA injection
Procedure: (§1) Oocytes were obtained from Xenopus laevis frogs (Nasco or Xenopus I) kept in aquarium tanks at 19–21° C., on a 12 hr light/dark cycle. Mature females were anesthetized by immersion for approximately 30 min in a 0.12% 3-aminobenzoic acid ethyl ester solution, a small incision was made in the abdominal wall and a piece of ovary was removed and placed in Modified Barth's solution (MBS; in mM) containing 88 NaCl, 1 KCl, 10 HEPES, 0.82 MgSO4, 2.4 NaHCO3, 0.91 CaCl2, 0.33 Ca(NO3)2 (pH 7.5). To facilitate manual dissection of oocytes, a section of ovary was transferred from MBS to a hypertonic buffer containing 108 mM NaCl, 2 mM KCl, 2 mM EDTA, 10 mM HEPES, pH 7.5 and theca and epithelial layers of mature oocytes (stages V and VI) were removed with surgical forceps. The follicular layer was removed by a 10 min immersion in 0.5 mg/ml of collagenase in buffer containing 83 mM NaCl, 2 mM KCl, 1 mM MgCl2 and 5 mM HEPES.
(§2) Human NR1a, NR2A and NR2B cDNAs in pCDNA-1Amp were transformed and amplified in XL-1 Blue cells and purified with the MaxPrep Qiagen kit. Oocytes were injected with cDNA into the nucleus in the following concentrations: NR1a/2A cDNAs 0.75 ng/30 nl 1:1 ratio, NR1a/2B cDNAs 3.0 ng/30 nl: 1:1 ratio. Injections were made with micropipettes (10 μm tip diameter) connected to a Drummond micropipettor attached to a micromanipulator. After injection, oocytes were individually placed in wells of 96-well microtiter plates containing incubation medium (MBS supplemented with 10 mg/l streptomycin, 10,000 U/l penicillin G, 50 mg/l gentamicin, 2 mM sodium pyruvate, 0.5 mM theophylline) that had been sterilized by passage through a […]. Oocytes were incubated at 19° C. for 2 to 4 days after injection.
(§3) Oocytes were placed in a rectangular chamber (approximately […]) and perfused (2 ml/min) with frog Ringer (in mM) containing 115 NaCl, 2.5 KCl, 1.8 CaCl2, 10 HEPES (pH 7.2). […] Control responses were always measured before and after addition of the DCUKA. […] Data are expressed as the % inhibition of the agonist response obtained in the absence of the drug.

[4] = target: T2, NR1a/NR2B recombinant receptors (Homo sapiens, UniProt Q05586); test: as above; assay type: cell-based; settings: 100 μM NMDA, 50 μM DCUKA, increasing glycine
T2 construct: expressed in transfected cells; host or cells: Xenopus laevis oocytes, nuclear cDNA injection
Procedure: as §1, §2, §3

Row | IC50 [2] [µM] | IC50 [3] [µM] | reversal by glycine of inhibition of NMDA-induced currents [4] | SMILES | frequency of clonic audiogenic seizures [1] | duration of ethanol-induced loss of righting reflex (LORR) (Swiss-Webster mice)
1 |  |  |  | COC(=O)c1cc(NC(=O)N(c2ccccc2)c2ccccc2)c2c(Cl)cc(Cl)cc2n1 [DCUK-OMe, (N,N-diphenyl)-4-ureido-5,7-dichloro-2-carboxy-quinoline methyl ester] | suppression of audiogenic seizures | no significant enhancement
2 | > 200 | 20.7 | completely reversed at 10 μM glycine | O=C(O)c1cc(NC(=O)N(c2ccccc2)c2ccccc2)c2c(Cl)cc(Cl)cc2n1 [DCUKA, (N,N-diphenyl)-4-ureido-5,7-dichloro-2-carboxy-quinoline] |  | 
